What is called melting point is the temperature of the solid-liquid transition.

`CCOC(=O)c1c(CCl)nc2cc(OC)c(OC)cc2c1-c1ccc(F)cc1` gave a melting point of 147 to 148 °C.
To `CC1(C)C2=C(CCC2=O)c2ccccc21` belongs 114 °C; to `Cc1ccccc1Sc1cccc(C(C)C(=O)O)c1O` (configuration not stated), 123 to 125 °C; to `CCNC(=O)/C=C/c1cccc(Br)c1`, 89 to 90 °C.
Take `CC(C)(O)C(O)c1cnc(C2OCCO2)s1` (configuration not stated): the melting point fell in the range of 130 to 131 °C.
Turning to `CCOC(=O)c1ncc2[nH]c3ccc(-c4ccccc4)cc3c2c1C`, the melting point fell in the range of 241 to 242 °C.
As to `CCOC(=O)CC(=O)CC(O)/C=C/c1c(-c2ccccc2)c2ccccc2c(=O)n1C` (configuration not stated), the melting point was in the range of 148 to 149 °C.
`COCc1c(Cl)ccc(C(=O)c2cnoc2C2CC2)c1S(C)(=O)=O` showed a melting point of 83.6 to 84.2 °C.
As for `Cc1nc2c(N)nc3ccccc3c2n1CCCCNC(=O)Nc1ccccc1`, the figure is 172 °C; as for `CS(=O)(=O)OCC(Oc1ccc(F)c(C(N)=O)c1F)c1nc(-c2ccc(C(F)(F)F)cc2)c(Cl)o1` (configuration not stated), 163 °C; as for `CCCC1=C(C(=O)OCC)C(c2cccc(F)c2F)c2c[nH]nc2N1` (configuration not stated), 207 °C.
As to `O=C(NC1CCc2ccccc2C1=O)c1ccccc1` (configuration not stated), the melting point is 175 °C.
Turning to `COc1ccc(Sc2ccc3c(c2)OCC(=O)N3)cc1OC`, the melting point lay in the range of 97 to 98 °C.
As for `C[C@H](NC(=O)Cc1ccc(F)cc1)C(=O)N[C@@H]1C(=O)Nc2ccccc2O[C@@H]1c1ccccc1`, the figure is 130 to 140 °C; as for `O=C(O)c1cn(C2CC2)c2c(F)c(F)c(F)c(NC(=O)C(F)(F)F)c2c1=O`, 188 °C.
To `CN1C(=O)CC[C@]2(C)c3ccc(Sc4nccc5sccc45)cc3CC[C@@H]12` belongs 196 to 197 °C.
The compound `CCC1(CO)COCOC1` displayed a melting point of 95 to 102 °C.
`O=C(Nc1cccnc1O)C1CCCC1` registered a melting point of 242 to 243 °C.
Compound `COC(=O)c1cccc(-c2ncc(OCCN3CCOCC3)cn2)c1` returned a melting point of 89 to 91 °C.
For `O=C1C(=CO)CSc2c(Cl)cccc21`, the melting point is 97 to 99 °C.
To `CCOC(Cc1ccc(NCCc2ccc(OS(C)(=O)=O)cc2)cc1)C(=O)O` (configuration not stated) belongs 130 to 134 °C; to `CC(=O)c1nc2cccc(OC(F)(F)F)c2cc1OCc1ccccc1`, 90 to 92 °C.
For `CCCCCc1cnc(N2CCC(c3ccc(COc4ccc(S(C)(=O)=O)cc4)nc3)CC2)nc1`, the melting point lay in the range of 154 to 157 °C.
For `Cc1cc(O)c(SCc2ccccc2)c(=O)o1`, the melting point is 128 °C.
To `COc1ccc(C2COc3cc(OC(C)=O)c(OC(C)=O)cc3C2)cc1` (configuration not stated) belongs 104 °C.
The compound `NCCc1ccc(-n2cnc3cnc4ccc(Cl)cc4c32)cc1` came in with a melting point of 140 to 141 °C.
Regarding `NCCCCCCCCC(=O)O`, the melting point is 190 to 193 °C.
As to `O=c1ccc(S(=O)(=O)c2cc3cc(Cl)cc(Cl)c3[nH]2)n[nH]1`, the melting point was greater than 250 °C.
To `OC(CNC(=S)NCc1ccc(Cl)cc1)(Cn1cncn1)c1ccc(Cl)cc1Cl` (configuration not stated) belongs 209 to 210 °C.
In turn, `Clc1ccc(NN=Cc2cccnc2)cc1` registered a melting point of 186 °C.
For `CCOC(=O)CCC1NC(=O)CN1Cc1ccccc1` (configuration not stated), the melting point is 60 to 62 °C.
On to `O=C(Nc1ccc(F)cc1F)NC1(c2cccs2)CCCCC1`, for which the melting point was in the range of 175 to 177 °C.
In the case of `CC(=O)NNC(=N)c1ncc([N+](=O)[O-])n1C`, the melting point turned out to be 294 °C.
To `COc1ccc(N(C(=O)CN2C(=O)C(Cc3cc(C)nn3Cc3ccccc3)C(=O)N(c3ccccc3)c3ccccc32)C(C)C)cc1` (configuration not stated) belongs 117 to 120 °C.
To `Cn1cc(-c2ccc(C(=O)N3Cc4cccn4Cc4ccccc43)cn2)cn1` belongs 173 to 175 °C; to `CCCC(O)c1cc(C)cc(C)c1C=CC1OCC(C)(C)CO1` (configuration not stated), 56 to 59 °C; to `CCCc1c(OCc2ccc(C(=O)O)cc2F)ccc(C(C)=O)c1O`, 203 to 206 °C.
As for `CC(C)C(=O)NC(C)(C)C`, the figure is 117 to 119 °C; as for `CS(=O)c1ccc(CSc2nnc(-c3ccc4ncsc4c3)o2)cc1C(F)(F)F` (configuration not stated), 179 to 180 °C.
`Clc1ccc2c(Cl)c3c(nc2c1)CCCC3`: the melting point fell in the range of 85 to 87 °C.
`Cc1nc(-n2cnn(Cc3ccc(F)cc3)c2=O)sc1C(=O)NCc1cccc(N(C)C)c1` displayed a melting point of 149 to 151 °C.
As for `C#CCn1c(-c2cc(Cl)nc(Cl)c2)nc(OS(=O)(=O)C(F)(F)F)c(CC)c1=O`, the figure is 112 to 114 °C; as for `Cc1cccc2c(=O)[nH]c(C3CCC(N(C)C)CC3)nc12` (configuration not stated), 181 to 183 °C.
As for `CNC(=O)N1CCN(CC(O)COc2ccccc2)CC1` (configuration not stated), the figure is 91 to 95 °C; as for `COC(=O)c1ccc(C=CC(=O)N2CCc3c([nH]c4ccccc34)C2c2ccc3c(c2)OCCO3)cc1` (configuration not stated), 136 °C; as for `CCOC(=O)C(CC)Oc1cccc(N2CCN(c3ccncc3)CC2)c1` (configuration not stated), 160 to 162 °C.
To `COc1ccnc(C#N)c1OC` belongs 133 °C; to `Fc1ccc(-c2cc3ccccc3n2-c2ccccc2)cc1`, 126 to 128 °C.
The compound `CCCc1c(OCC2Cc3cc(CC(=O)OC)ccc3O2)ccc(C(C)=O)c1O` (configuration not stated) came in with a melting point of 77 to 78 °C.
As for `CSc1ccc(-c2[nH]c3cccc4c3c2CCNC4=O)cc1`, the figure is 250 to 251 °C; as for `CCOC(=O)CSc1nc(Cl)cc(Nc2ccc(OC)cc2)n1`, 96 to 97.5 °C; as for `O=C1Nc2ccc(Cl)cc2C1c1ncnc2c1cnn2C1CCCC1` (configuration not stated), 304 to 306 °C.
Compound `Cc1nccn1N=Cc1ccc(N(C)C)cc1` displayed a melting point of 166 to 167 °C.
The compound `CCc1cccc(CC(=O)O)c1OCCCc1cn(-c2ccc(Cl)cn2)nc1C(C)C` had a melting point of 142 to 143 °C.
Turning to `CCOC(=O)Cc1c[nH]c2nc(Nc3ccc(OC(C)C)cc3)nn2c1=O`, the melting point lay in the range of 235 to 240 °C.
`CC1(Cn2c(=O)oc3ccccc32)Cn2cc([N+](=O)[O-])nc2O1` (configuration not stated) came in with a melting point of 223 to 224 °C.
Regarding `Clc1cc(CCc2ccccn2)c2oc(-c3ccsc3)nc2c1`, the melting point fell in the range of 126 to 127 °C.
Consider `Cc1cccc2c1c(C(=O)CC1CCCCCC1)cn2CCO`, for which the melting point lay within 98 to 104 °C.
As for `CC(C)Oc1ccc(CCCO)c(Oc2ncc(Cl)cc2Cl)c1`, the figure is 57 to 59 °C; as for `CC(C)(C)OC(=O)Cc1ccc(CC(N=C(c2ccccc2)c2ccccc2)C(=O)OCc2ccccc2)cc1` (configuration not stated), 139 to 141 °C.
In turn, `C=CCSCCON=C(C(=O)OCC)c1csc(NC=O)n1` gave a melting point of 62 to 64 °C.
In turn, `CCOC(=O)NC(=N)c1ccc(N2CCN(c3ccc(CCC(=O)OC)cc3)S2(=O)=O)cc1` registered a melting point greater than 275 °C.
In turn, `CC(=O)c1ccc(CCC(=O)O)cc1` came in with a melting point of 118 to 119 °C.
To `COc1ccc(C(=O)c2cc3c(c(Cl)c2Cl)OC(C(=O)O)C3)cc1` (configuration not stated) belongs 187 °C.
The compound `CCCC1CCCCCc2c1oc(=O)c(C(c1ccccc1)C1CC1)c2O` (configuration not stated) registered a melting point of 78 to 84 °C.
To `CC(=C(F)F)c1cn(-c2c(Cl)cc(C(F)(F)F)cc2Cl)nc1C#N` belongs 66 to 68 °C; to `CCOC(=O)c1c(C)nc(OCC)c2nnn(CC)c12`, 56 to 58 °C.
Turning to `O=Cc1ccc(-c2ccc(Br)cn2)cc1`, the melting point was 120 to 121 °C.
`Cc1coc2c1C(=O)CC(c1cccs1)C2` (configuration not stated) came in with a melting point of 81 to 82 °C.
In the case of `CCC1(C)SC(C)N=C1C` (configuration not stated), the melting point is 82 °C.
Compound `COc1ccc(-n2c(=O)n(O)c(=O)c3cc(F)c(N4CCCC4)cc32)cc1` had a melting point of 224 to 226 °C.
In turn, `CC1(C)CCC(C)(C)c2cc(CC(=O)O)ccc21` came in with a melting point of 149 to 150 °C.
`CCc1nc(NC(=O)c2cnn3c(C(F)F)cc(-c4ccc(C(F)(F)F)cc4)nc23)sc1S(=O)(=O)N1CCC(O)C1` (racemic) registered a melting point of 286 °C.
In turn, `CC1(C)C(=O)C(C(=O)Cc2ccc(Cl)cc2)C(=O)C(C)(C)C1=O` showed a melting point of 57 to 61 °C.
On to `CC1(C)C(=O)Nc2ccc(-c3ccc(C#N)o3)cc21`, for which the melting point lay in the range of 193 to 194 °C.
In turn, `OCCN1CCN(c2ccc(Nc3ncc4ccc(-c5cccnc5)n4n3)cc2)CC1` registered a melting point of 189 to 190 °C.
Consider `CC(=O)N(C(C)=O)c1ccc(C=Cc2ccc3ccccc3n2)cc1`, for which the melting point fell in the range of 148 to 150 °C.
`CC(C)OC(=O)C1C(=S)NCC1C` (configuration not stated): the melting point fell in the range of 41 to 44 °C.
Regarding `COC(=O)C(CCl)NC(=O)c1c(F)cccc1F` (configuration not stated), the melting point came out at 93.5 °C.
As for `O=C(NC(=O)c1cccs1)NC1CCN(Cc2c[nH]c3ccccc23)CC1`, the figure is 231 to 232 °C; as for `CC(C)(C)c1cc(CCc2ccccc2NC(=O)NCc2ccco2)cc(C(C)(C)C)c1O`, 170 °C.
As for `COc1ccc(-c2cc(C(O)C(F)(F)F)[nH]c2-c2ccc(OC)cc2)cc1` (configuration not stated), the figure is 84 to 86 °C; as for `COc1ccc(C(=NOC(C)=O)c2ccc(Cl)cc2)c(O)c1`, 167 °C.
As for `CCOc1ccc2c(c1)C(C)(c1cc(C(=O)ON3C(=O)CCC3=O)ccc1Cl)C(=O)N2S(=O)(=O)c1ccc(C(=O)NC(C)(C)C)cc1` (configuration not stated), the figure is 168 °C; as for `COc1ccc(C(=O)c2[nH]c3cc(Cl)ccc3c2CC(=O)O)cc1`, 187 to 190 °C.
`Cc1c(Cl)cc(C(=O)C=CC(=O)O)cc1Cl` came in with a melting point of 206 to 216 °C.
As for `COC(=O)c1cc(OCc2c(C)cccc2C)c2nc(C)n(C)c2c1`, the melting point is 165 to 169 °C.
To `COC(=O)COCc1cc2cc(Cl)ccc2n1S(=O)(=O)c1ccccc1` belongs 98 to 100 °C; to `COc1ccc(Nc2nc(Cl)nc(NC3CC3)n2)cc1Cl`, 172 °C.
Turning to `N#Cc1c(OCC#CI)nsc1SC(F)F`, the melting point was 106 to 107 °C.
`CCC1(CO)Cc2cc(OCC(=O)O)c(Cl)c(Cl)c2C1=O` (configuration not stated) gave a melting point of 155 to 157 °C.
As for `O=C(O)COc1c(I)cc(C(=O)c2c(Cc3ccccc3)oc3ccccc23)cc1I`, the figure is 144 to 146 °C.

Source of the values: a melting point compilation (Tetko et al.; mined from patent text by program, amines drawn as free bases though some values may be those of a salt).
